Test results as given in paper PMC8395767, “Worsening of the Toxic Effects of (±)Cis-4,4′-DMAR Following Its Co-Administration with (±)Trans-4,4′-DMAR: Neuro-Behavioural, Physiological, Immunohistochemical and Metabolic Studies in Mice” (International Journal of Molecular Sciences, 2021).
Several values for one entry are separate records, joined by “and”; a condition that tells them apart may be missing. Equal entries are not always repeated. Marks after values point to notes of the source that are not given here.

How the values were obtained:
mice [1] = experiment: Psychomotor agitation (observational behavioural test); assay type: in vivo
Procedure: (§1) The effects of (±)cis-4,4′-DMAR, (±)trans-4,4′-DMAR and their co-administration were investigated by a protocol widely used in studies of “safety pharmacology” for the preclinical characterization of new molecules in rodents. This protocol includes a series of observational behavioural tests carried out in a consecutive manner that monitor the animal responses up to 5 h after compound injections. In the present study, we reported the observation of physiological (sweating, salivation, core temperature) and neuro-behavioural (detection of psychomotor agitation, spontaneous and stimulated aggressiveness, convulsions) changes occurring in mice after injection of (±)cis-4,4′-DMAR, (±)trans-4,4′-DMAR and their co-administration. Before pharmacological treatment the mouse was placed on a square plate (30 cm× 30 cm) raised from the ground (20 cm) and left free to move on the plate for 10 min (habituation period). The animal was then injected with the vehicle, substances alone ((±)cis-4,4′-DMAR or (±)trans-4,4′-DMAR) or in cis + trans co-administration and placed on the plate. From this moment, the recording time of the physiological and neuro-behavioural responses started, and these were detected in 5-min sessions.
(§2) After the first 5 min, the animal was removed from the plate; the body core temperature was then measured, and the aggression tests were performed. The 5-min observation period was repeated at 15–30–60–90–120–180–240–300. Psychomotor agitation in the mouse was not simply related to an increase in spontaneous locomotion itself, but by an “unusual hyperactivity” which was characterised by rapid and sudden horizontal displacements in all directions, sustained turning behaviour, involuntary falls from the high plate during the evaluation of the tests, stereotyped movements and rearing activity. Mouse sweating and salivation were reported only if present or not. The core temperature was determined using a probe (1 mm diameter) that was gently inserted after lubrication with liquid Vaseline into the rectum of the mouse (to about 2 cm) and left in position until the temperature stabilised (about 10 s). The probe was connected to a digital thermometer. Spontaneous aggressive response was measured based on the number of times a mouse bit a grey cloth put in front of its snout. During the test, each mouse was free to move within the cage. In the case of stimulated aggressiveness, each mouse was manually restrained and held in a supine position following which an object was brought near the mouth. For both spontaneous and stimulated aggressive behaviour tests, a grey cloth was placed in front of the nose of each mouse 10 consecutive times (score 0/10 not aggressive, score 10/10 very aggressive). Convulsions were defined as a loss of righting reflexes for at least 5 s, combined with the presence of body tremors and clonic or tonic limb movements. Deaths caused by 4-4’-DMAR injection occurring during the observation period (5 h) were also reported as frequency (%) and time of death (min). Experiments were conducted inside the LARP (Centralised Preclinical Research Laboratory, University of Ferrara, Ferrara, Italy) in a thermo-stated (temperature 20–22 °C, humidity about 45–55%) and light controlled (about 150 lux) room, in which there was a background noise of about 40 ± 4 dB. The experiments, conducted in blind by trained observers working together in pairs, were videotaped and eventually analysed off-line by a different trained operator. The experiments were performed between 8:30 a.m. and 2:00 p.m.
(§3) Sweating and salivation were expressed as frequency (e.g., % of animals that developed symptoms); psychomotor agitation was expressed as frequency (% of animals) and duration (total time in mins). Core temperature values were expressed as the difference between control temperature (before injection) and temperature following drug administration (Δ°C). […]

mice [2] = experiment: Sweating and salivation (observation, present or not); assay type: in vivo; conditions: n=6 mice
Procedure: as §1, §2, §3

mice [3] = experiment: Spontaneous and stimulated aggressiveness (bites of a grey cloth); assay type: in vivo
Procedure: as §1, §2, §3

mice [4] = experiment: Convulsions (observation); assay type: in vivo; conditions: n=6 mice
Procedure: as §1, §2, §3

DAT = system: DAT; design: method as in PMID 25331619; conditions: rat brain tissue, lower potency than (±)cis-4,4′-DMAR; cited from earlier work
SERT = system: SERT; design: method as in PMID 25331619; conditions: rat brain tissue, lower potency than (±)cis-4,4′-DMAR; cited from earlier work
mice [5] = experiment: Physiological and neuro-behavioural responses, all parameters (safety pharmacology protocol); assay type: in vivo
Procedure: The effects of (±)cis-4,4′-DMAR, (±)trans-4,4′-DMAR and their co-administration were investigated by a protocol widely used in studies of “safety pharmacology” for the preclinical characterization of new molecules in rodents. This protocol includes a series of observational behavioural tests carried out in a consecutive manner that monitor the animal responses up to 5 h after compound injections. […] From this moment, the recording time of the physiological and neuro-behavioural responses started, and these were detected in 5-min sessions.
After the first 5 min, the animal was removed from the plate; the body core temperature was then measured, and the aggression tests were performed. […] The core temperature was determined using a probe (1 mm diameter) that was gently inserted after lubrication with liquid Vaseline into the rectum of the mouse (to about 2 cm) and left in position until the temperature stabilised (about 10 s). […] Spontaneous aggressive response was measured based on the number of times a mouse bit a grey cloth put in front of its snout. […] The experiments, conducted in blind by trained observers working together in pairs, were videotaped and eventually analysed off-line by a different trained operator. […]

NET = system: NET; design: method as in PMID 25331619; conditions: rat brain tissue, lower potency than (±)cis-4,4′-DMAR; cited from earlier work
[6] = 10 mg/kg i.p., n=4 mice (animals of the urine excretion study)
[7] = 30 mg/kg i.p., listed as (±)cis-4,4′-DMAR
[8] = 60 mg/kg i.p., listed as (±)cis-4,4′-DMAR

Compound: Cc1ccc(C2OC(N)=NC2C)cc1 (stereo not drawn) [cis-4,4’-DMAR, 4-methyl-5-(4-methylphenyl)-4,5-dihydrooxazol-2-amine]
- Psychomotor agitation Frequency % (n° of mice) (mice [1]; 1 mg/kg i.p., n=6 mice): ineffective
- Psychomotor agitation Duration (mice [1]; 3 mg/kg i.p., n=6 mice): 54.2 ± 10.30 min
- Psychomotor agitation Frequency % (n° of mice) (mice [1]; 3 mg/kg i.p., n=6 mice): 100% (6)
- Psychomotor agitation Latency (mice [1]; 3 mg/kg i.p., n=6 mice): 61.2 ± 6.30 min
- Psychomotor agitation, start of effect (mice [1]; 10 mg/kg alone, mice): about thirty
- Psychomotor agitation Duration (mice [1]; [6]): 125.0 ± 10.12 min
- Psychomotor agitation Frequency % (n° of mice) (mice [1]; [6]): 100% (4)
- Psychomotor agitation Latency (mice [1]; [6]): 26.4 ± 6.25 min
- Psychomotor agitation Duration (mice [1]; 10 mg/kg i.p., n=6 mice): 121.0 ± 12.35 min
- Psychomotor agitation Duration (min) (mice [1]; 10 mg/kg i.p., n=6 mice): 121.0 ± 12.35 ^a min
- Psychomotor agitation Frequency % (n° of mice) (mice [1]; 10 mg/kg i.p., n=6 mice): 100% (6)
- Psychomotor agitation Latency (mice [1]; 10 mg/kg i.p., n=6 mice): 28.2 ± 7.20 min
- Psychomotor agitation Latency (min) (mice [1]; 10 mg/kg i.p., n=6 mice): 28.2 ± 7.20 ^a min
- Psychomotor agitation Frequency % (n° of mice) (mice [1]; 10 mg/kg i.p., n=6 mice, listed as (±)cis-4,4′-DMAR): 100%
- Psychomotor agitation Duration (min) (mice [1]; 30 mg/kg i.p., n=6 mice): 235.1 ± 15.25 ^ab min
- Psychomotor agitation Frequency % (n° of mice) (mice [1]; 30 mg/kg i.p., n=6 mice): 100% (6)
- Psychomotor agitation Latency (min) (mice [1]; 30 mg/kg i.p., n=6 mice): 3.2 ± 0.25 ^ab min
- Psychomotor agitation Duration (min) (mice [1]; 60 mg/kg i.p., n=6 mice): 280.1 ± 12.35 ^ab min
- Psychomotor agitation Frequency % (n° of mice) (mice [1]; 60 mg/kg i.p., n=6 mice): 100% (6)
- Psychomotor agitation Latency (mice [1]; 60 mg/kg i.p., n=6 mice): 2.2 ± 0.15 min
- Psychomotor agitation Latency (min) (mice [1]; 60 mg/kg i.p., n=6 mice): 2.2 ± 0.15 ^ab min
- Psychomotor agitation, dose range in which the effect was significant (mice [1]; i.p., mice, tested 0.1–60 mg/kg): 3 to 60 mg/kg
- Salivation Frequency % (n° of mice) (mice [2]; 30 mg/kg i.p.): 100% (6)
- Sweating Frequency % (n° of mice) (mice [2]; 30 mg/kg i.p.): 100% (6)
- Salivation Frequency % (n° of mice) (mice [2]; [7]): All animals
- Sweating Frequency % (n° of mice) (mice [2]; [7]): All animals
- Salivation Frequency % (n° of mice) (mice [2]; 60 mg/kg i.p.): 50% (3)
- Sweating Frequency % (n° of mice) (mice [2]; 60 mg/kg i.p.): 100% (6)
- Sweating Frequency % (n° of mice) (mice [2]; [8]): 50%
- Aggressiveness Stimulated Frequency % (n° of mice) (mice [3]; [6]): 100% (4)
- Aggressiveness Stimulated Score (n° of bites) (mice [3]; [6]): 5 ± 0.23 n° of bites
- Aggressiveness Stimulated Frequency % (n° of mice) (mice [3]; 10 mg/kg i.p., n=6 mice): 100% (6)
- Aggressiveness Stimulated Score (n° of bites) (mice [3]; 10 mg/kg i.p., n=6 mice): 6 ± 0.23 n° of bites
- Aggressiveness Stimulated Frequency % (n° of mice) (mice [3]; 30 mg/kg i.p., n=6 mice): 100% (6)
- Aggressiveness Stimulated Score (n° of bites) (mice [3]; 30 mg/kg i.p., n=6 mice): 10 ± 0.23 ^b n° of bites
- Spontaneous aggressiveness (mice [3]; mice, i.p., 60 mg/kg could not be tested): not associated with increased levels
- Convulsion Duration of each episode (mice [4]; 30 mg/kg i.p.): 4.86 ± 1.26 s
- Convulsion Episodes (n°) (mice [4]; 30 mg/kg i.p.): 3.5 ± 0.5 n°
- Convulsion Frequency % (n° of mice) (mice [4]; 30 mg/kg i.p.): 50% (3)
- Convulsion Latency of first episode (mice [4]; 30 mg/kg i.p.): 10.5 ± 1.5 s
- Convulsion Frequency % (n° of mice) (mice [4]; [7]): 50%
- Convulsion Duration of each episode (mice [4]; 60 mg/kg i.p.): 16.14 ± 6.2 s
- Convulsion Duration of each episode (sec) (mice [4]; 60 mg/kg i.p.): 16.14 ± 3.2 ^d sec
- Convulsion Episodes (n°) (mice [4]; 60 mg/kg i.p.): 2.0 ± 0.41 ^d n° and 2.0 ± 0.41 n°
- Convulsion Frequency % (n° of mice) (mice [4]; 60 mg/kg i.p.): 100% (6)
- Convulsion Latency of first episode (mice [4]; 60 mg/kg i.p.): 8.25 ± 1.1 s
- Convulsion Frequency % (n° of mice) (mice [4]; [8]): 100%

Compound: Cc1ccc(C2OC(N)=NC2C)cc1 (stereo not drawn) [trans-4,4’-DMAR, 4-methyl-5-(4-methylphenyl)-4,5-dihydrooxazol-2-amine]
- Mode of action at DAT (DAT): substrate-type releaser
- Mode of action at SERT (SERT): uptake blocker
- Physiological and neuro-behavioural changes (mice [5]; 30 and 60 mg/kg, systemic administration): did not induce any physiological and neuro-behavioural changes
- Physiological and neuro-behavioural parameters, all parameters studied (mice [5]; lower doses of 0.1 and 1 mg/kg): inactive
- Mode of action at NET (NET): substrate-type releaser
